# From BindingDB's records for doi:10.1016/0960-894X(96)00174-6 (n/a, 1996)
# Target: T1, 5-hydroxytryptamine receptor 2C (Homo sapiens, UniProt P28335)
# T1 sequence (P28335 whole entry): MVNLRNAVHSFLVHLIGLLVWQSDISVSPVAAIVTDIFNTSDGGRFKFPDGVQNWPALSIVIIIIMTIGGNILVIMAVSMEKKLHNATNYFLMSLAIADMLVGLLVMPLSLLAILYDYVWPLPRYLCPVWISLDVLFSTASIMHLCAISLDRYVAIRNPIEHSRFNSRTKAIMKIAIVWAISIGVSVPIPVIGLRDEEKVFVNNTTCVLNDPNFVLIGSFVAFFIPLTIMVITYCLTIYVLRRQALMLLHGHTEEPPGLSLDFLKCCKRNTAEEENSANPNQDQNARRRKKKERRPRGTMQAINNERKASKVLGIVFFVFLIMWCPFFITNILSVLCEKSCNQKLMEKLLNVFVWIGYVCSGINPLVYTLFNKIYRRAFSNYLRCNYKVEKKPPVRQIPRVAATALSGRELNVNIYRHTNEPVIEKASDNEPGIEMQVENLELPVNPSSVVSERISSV
# Test: ChEBML_3050
# From the text: Binding affinity towards 5-hydroxytryptamine 2C receptor by displacement of [3H]N-methyl-mesulergine
row,SMILES,IC50 [µM]
1,CCCN(CCC)CC1(N(CCC)CCC)COc2cccc(OC)c2C1 (stereo not drawn),30.2
2,"COc1cccc2c1CC1(CCCN1CCCCN1C(=O)CC3(CCCC3)CC1=O)CO2 (racemic) [(+/-) 8-{4-[5-methoxyspiro[3,4-dihydro-2H-chromene-3,2'-(tetrahydro-1'H-pyrrole)]-1-yl]butyl}-8-azaspiro[4.5]decane-7,9-dione]",10.5
3,O=C1CC2(CCCC2)CC(=O)N1CCCCNCC1COc2ccccc2C1 (stereo not drawn),1.23
4,COc1cccc2c1CC(CNCCCCN1C(=O)CC3(CCCC3)CC1=O)CO2 (stereo not drawn),0.169
5,CCCN(CCCCN1C(=O)CC2(CCCC2)CC1=O)CC1COc2cccc(OC)c2C1 (stereo not drawn),3.16

# Second part, the compound after the results:
row,IC50 [µM],SMILES
1,468,CCCN1CCN(CCC)C2(COc3cccc(OC)c3C2)C1 (stereo not drawn)
2,30.9,CCCN1CCN(CCCCN2C(=O)CC3(CCCC3)CC2=O)CC12COc1cccc(OC)c1C2 (stereo not drawn)
3,38.9,CCCN1CCN(Cc2ccccc2)CC12COc1cccc(OC)c1C2 (stereo not drawn)
